Results: ChEMBL document CHEMBL3994619, “Inhibition of invasion by N-trans-feruloyloctopamine via AKT, p38MAPK and EMT related signals in hepatocellular carcinoma cells” (Bioorg Med Chem Lett, 2017)
pIC50: −log10 of the molar value. Active and inactive are the calls of the source. The rule behind the calls is not given here.

Legend:
[1] = system: HCCLM3; assay: Downregulation of slug in human HCCLM3 cells at 2 mM after 48 hrs by western blot analysis; assay type: functional, cell-based
[2] = system: HCCLM3; assay: Antiproliferative activity against human HCCLM3 cells assessed as reduction in cell viability after 48 hrs by CCK8 assay; assay type: functional, cell-based; settings: HCCLM3, 48 h
[3] = system: Huh-7; assay: Anti-invasive activity in human HuH7 cells assessed as invasive cell count at 2 mM after 48 hrs using Giemsa dye by matrigel based microscopic method (reference value: 36 +/- 6); assay type: functional
[4] = molecular target: Transcription factor p65 (Homo sapiens) (UniProt Q04206); assay: Effect on p65 phosphorylation in human HCCLM3 cells at 2 mM after 48 hrs by western blot analysis; assay type: cell-based
Chain of Transcription factor p65 (Homo sapiens) (Q04206 whole entry): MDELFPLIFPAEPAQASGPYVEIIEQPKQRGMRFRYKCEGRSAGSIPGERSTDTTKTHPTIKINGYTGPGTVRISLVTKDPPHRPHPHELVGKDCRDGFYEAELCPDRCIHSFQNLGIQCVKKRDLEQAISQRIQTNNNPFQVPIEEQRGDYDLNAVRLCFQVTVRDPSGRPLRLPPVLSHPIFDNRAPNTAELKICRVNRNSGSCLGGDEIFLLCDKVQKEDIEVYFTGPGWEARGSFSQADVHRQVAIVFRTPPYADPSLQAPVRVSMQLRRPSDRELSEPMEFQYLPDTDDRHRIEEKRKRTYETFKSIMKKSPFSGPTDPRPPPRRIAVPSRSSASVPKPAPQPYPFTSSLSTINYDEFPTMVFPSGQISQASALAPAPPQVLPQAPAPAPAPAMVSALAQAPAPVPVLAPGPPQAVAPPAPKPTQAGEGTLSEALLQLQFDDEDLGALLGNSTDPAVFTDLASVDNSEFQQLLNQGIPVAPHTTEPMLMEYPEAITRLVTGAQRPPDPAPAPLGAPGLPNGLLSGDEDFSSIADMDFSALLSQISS

[5] = molecular target: T1, MAP kinase p38 (Homo sapiens) (UniProt O15264+Q15759+Q16539+P53778); assay: Reduction in p38 phosphorylation in human HuH7 cells at 2 mM after 48 hrs by western blot analysis; assay type: cell-based
[6] = system: Huh-7; assay: Antiproliferative activity against human HuH7 cells assessed as reduction in cell viability after 48 hrs by CCK8 assay; assay type: functional, cell-based; settings: Huh-7, 48 h
[7] = molecular target: T1, MAP kinase p38 (Homo sapiens); assay: Reduction in p38 phosphorylation in human HCCLM3 cells at 2 mM after 48 hrs by western blot analysis; assay type: cell-based
[8] = system: HCCLM3; assay: Upregulation of E-cadherin in human HCCLM3 cells after 48 hrs by western blot analysis; assay type: functional, cell-based
[9] = system: Huh-7; assay: Antimigratory activity in human HuH7 cells assessed as wound closure at 2 mM after 48 hrs by inverted microscopic method; assay type: functional, cell-based
[10] = organism: Homo sapiens; assay: Reduction in Akt phosphorylation in human HuH7 cells at 2 mM after 48 hrs by western blot analysis; assay type: cell-based
[11] = system: HCCLM3; assay: Cytotoxicity against human HCCLM3 cells after 48 hrs by CCK8 assay; assay type: cell-based; settings: hcclm3, 48 h
[12] = system: HCCLM3; assay: Antimigratory activity in human HCCLM3 cells assessed as wound closure at 2 mM after 48 hrs by inverted microscopic method; assay type: functional, cell-based
[13] = organism: Homo sapiens; assay: Reduction in Akt phosphorylation in human HCCLM3 cells at 2 mM after 48 hrs by western blot analysis; assay type: cell-based
[14] = system: HCCLM3; assay: Anti-invasive activity in human HCCLM3 cells assessed as invasive cell count at 2 mM after 48 hrs using Giemsa dye by matrigel based microscopic method (reference value: 64.7 +/- 9.3); assay type: functional
[15] = molecular target: Mitogen-activated protein kinase; ERK1/ERK2 (Homo sapiens) (UniProt P27361+P28482); assay: Effect on ERK1/2 phosphorylation in human HCCLM3 cells at 2 mM after 48 hrs by western blot analysis; assay type: cell-based
Chain of Mitogen-activated protein kinase; ERK1/ERK2 (Homo sapiens) (P27361 whole entry, looked up): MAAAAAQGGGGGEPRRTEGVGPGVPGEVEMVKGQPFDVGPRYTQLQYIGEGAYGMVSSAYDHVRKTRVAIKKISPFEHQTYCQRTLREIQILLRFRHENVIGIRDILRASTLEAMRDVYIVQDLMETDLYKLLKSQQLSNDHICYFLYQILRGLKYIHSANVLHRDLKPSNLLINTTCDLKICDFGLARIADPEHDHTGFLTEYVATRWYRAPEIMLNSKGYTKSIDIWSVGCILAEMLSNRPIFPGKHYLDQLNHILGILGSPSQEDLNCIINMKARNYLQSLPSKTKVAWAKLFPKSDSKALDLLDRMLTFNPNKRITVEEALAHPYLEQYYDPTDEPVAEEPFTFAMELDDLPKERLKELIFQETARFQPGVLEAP
Chain of Mitogen-activated protein kinase; ERK1/ERK2 (Homo sapiens) (P28482 whole entry, looked up): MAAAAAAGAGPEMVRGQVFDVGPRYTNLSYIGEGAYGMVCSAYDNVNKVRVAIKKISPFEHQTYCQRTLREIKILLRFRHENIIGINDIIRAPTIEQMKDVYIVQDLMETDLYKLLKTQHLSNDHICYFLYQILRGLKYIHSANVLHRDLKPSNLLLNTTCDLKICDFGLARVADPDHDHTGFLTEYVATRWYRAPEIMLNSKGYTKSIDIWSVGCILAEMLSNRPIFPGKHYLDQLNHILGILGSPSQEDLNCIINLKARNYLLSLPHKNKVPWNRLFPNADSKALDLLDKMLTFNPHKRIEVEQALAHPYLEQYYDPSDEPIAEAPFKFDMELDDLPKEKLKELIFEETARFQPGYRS

Structure (SMILES)	Activity [1]	pIC50 [2]	Activity [3]	Activity [4]	Activity [5]	pIC50 [6]	Activity [7]	Activity [8]	Activity [9]	Activity [10]	Activity [11]	Activity [12]	Activity [13]	Activity [14]	Activity [15]
COc1cc(/C=C/C(=O)NCC(O)c2ccc(O)cc2)ccc1O (configuration not stated)	Active	2.64	11.7	inactive	Active	2.70	Active	Active	inactive	Active	Non-Toxic	inactive	Active	23.3	inactive
O=c1[nH]cc(F)c(=O)[nH]1 [FLUOROURACIL]	–	2.74	–	–	–	2.53	–	–	–	–	–	–	–	–	–
